Results reported in patent US9475842B2, “Hexadepsipeptide analogues as anticancer compounds” (PIRAMAL ENTERPRISES LIMITED, priority 2012, dated 2016).
Where two headings read alike, the source gives them in different places.

What was measured:
[1] = test system: HCT 116 (Colorectal Cancer); test: Monolayer assay (CCK-8 cytotoxicity); format: cell-based, human; details: HCT116, Table 6, read-out: IC50 (μM) in different cancer cell lines: HCT116
Description: (§1) The assays were designed as in the reference, BMC Cancer, 2010, 10, 610, 1-11; the disclosure of which is incorporated by reference for the teaching of the assay.
(§2) Human tumour cell lines: Panc-1 (Pancreatic Cancer), HCT 116 (Colorectal Cancer), ACHN (Renal Cell Carcinoma), Calu-1 (Lung Carcinoma), MiaPaca2 (Pancreatic Cancer), FADU (Head and Neck Cancer), PC3 (prostate Cancer), G361 (Melanoma), MDA-MB435S (Melanoma), HeLa (Cervical Cancer) were grown in Minimal Essential Media with Eagle's Basal Salts (MEM-EBS) obtained from AMIMED (BioConcept-Switzerland). Tumour cell lines: MDA-MB231 (Breast Cancer), JURKAT (T cell leukaemia), H460 (Small Cell Lung Cancer) were cultured in RPMI 1640 (AMIMED, BioConcept, Switzerland) medium. All tumour cell lines were supplemented with 10% Foetal Bovine Serum (FBS) (GIBCO), 1% Penicillin/Streptomycin (Sigma) and 1% Anti-Anti (GIBCO) and grown in T-175 tissue culture flasks (Nunc). MCF-10A, a non-tumourigenic cell line, was cultured in Mammary Epithelial Basal Medium (MEBM) with all standard additions (Lonza, Catalog. No. CC-3150). All cells were grown in 5% CO2 incubator at 37° C. Cells were passaged at 80-90% confluence. Adherent cells were trypsinised using Trypsin-EDTA (Sigma) and maintained. All cell lines were purchased from ATCC (Rockville, Md., USA).
(§3) Compound of Formula (1a) [described in example 7] was dissolved in DMSO to give a required stock solution of 20 mM. Eight different concentrations of the compound of Formula (1a) were prepared by serial dilution of stock solution finally resulting in a (compared to the test concentration) 200-fold higher concentration. Compound of Formula (1a) was tested at the concentration of 0.0001 μM, 0.001 μM, 0.01 μM, 0.03 μM, 0.1 μM, 0.3 μM, 1 μM and 3 μM respectively. Each concentration was evaluated in triplicate.
(§4) Method for determination of IC50 of the compound of Formula (1a): • a) Different cancer/normal cells were seeded at a density of 3000 cells/200 μL well, in a tissue culture grade 96 well plate and allowed them to recover for 24 hrs in a humidified 5±0.2% CO2 incubator at 37±0.5° C. • b) After 24 hrs, 1 μL of 200× (200 times higher than required concentration is denoted as 200×) compound of Formula (1a), dissolved in DMSO, was added to the above tissue culture plate seeded with cancer/normal cells. The final concentration of DMSO was 0.5% in wells. DMSO was used as a vehicle control. • c) After 24 hrs the plate was removed from CO2 incubator and 5 μL of CCK-8 (Dojindo Molecular Technologies, Inc. USA, catalog, no. CK04-20) per well was added. • d) The plate was then placed at 37° C. for 2 hrs. • e) The absorbance was recorded at 450 nm. • f) The percent cytotoxicity was calculated using the following formula
(§5) The IC50 value was estimated by visual inspection of the concentration-effect curve. For calculation of mean IC50 values over the fourteen cell lines as tested, the geometric mean was selected.
(§6) The assays were designed as described above in example 16.
(§7) The IC50 value was estimated by visual inspection of the concentration-effect curve. For calculation of mean IC50 values over the six cell lines (PC3, MDA MB, HCT116, MCF7, MIAPaCa2, MCF10A) as tested, the geometric mean was selected.

[2] = test system: MDA-MB231 (Breast Cancer); test: Monolayer assay (CCK-8 cytotoxicity); format: cell-based, human; details: MDA MB-231, Table 6, read-out: IC50 (μM) in different cancer cell lines: MDA MB-231
Description: as §1, §2, §3, §4, §5, §6, §7

PC3 (prostate Cancer) = test: Monolayer assay (CCK-8 cytotoxicity); format: cell-based, human; details: PC3, Table 6, read-out: IC50 (μM) in different cancer cell lines: PC3
Description: as §1, §2, §3, §4, §5, §6, §7

[3] = test system: MCF-10A, a non-tumourigenic cell line; test: Monolayer assay (CCK-8 cytotoxicity), normal cells; format: cell-based; details: Table 6
Description: as §1, §2, §3, §4, §5, §6, §7

MCF7 = test: Monolayer assay (CCK-8 cytotoxicity); format: cell-based; details: Table 6, read-out: IC50 (μM) in different cancer cell lines: MCF7
Description: as §1, §4, §6, §7

different cancer cells = test: Monolayer assay, range over the cancer cell lines tested; format: cell-based; details: Homo sapiens; range over the cancer cell lines of Table 6
Description: as §1, §2, §3, §4, §5, §6, §7

[4] = Solubility (physical properties); format: physicochemical
[5] = read-out: IC50 (μM) in different cancer cell lines: MCF10A, MCF10A normal cells
[6] = MCF10A normal cells, read-out: IC50 (μM) in different cancer cell lines: MCF10A
[7] = Homo sapiens, MCF-10A, read-out: IC50 (μM) in different cancer cell lines: MCF10A, MCF10A normal cells

Row | Compound | IC50 ([1]; Homo sapiens, HCT-116) [µM] | IC50 ([2]; Homo sapiens) [µM] | IC50 (PC3 (prostate Cancer); Homo sapiens) [µM] | IC50 [3, 5] [µM] | IC50 (MCF7; Homo sapiens) [µM] | IC50 (different cancer cells) [µM] | IC50 [1] [µM] | IC50 [2] [µM] | IC50 [3, 6] [µM] | IC50 (MCF7) [µM] | IC50 [3, 7] [µM] | Solubility in organic solvents ([4]; chloroform, ethyl acetate and methanol) | Solubility in water ([4]; water) | IC50 (PC3 (prostate Cancer)) [µM]
1 | CON1C(=O)C2CCCNN2C(=O)C(NC(=O)C(C)(O)C2(O)CCC(CC(C)C)C(C)O2)C(C(C)C)OC(=O)C(C)N(OC)C(=O)C2CCCNN2C(=O)CNC(=O)C1C (stereo not shown) [Compound 2, 2-hydroxy-2-(2-hydroxy-5-isobutyl-6-methyltetrahydro-2H-pyran-2-yl)-N-(22-isopropyl-6,18-dimethoxy-7,19-dimethyl-5,8,11,17,20,24-hexaoxotetracosahydrodipyridazino[6,1-f:6′,1′-o][1,4,7,10,13,16]oxapentaazacyclononadecin-23-yl)propanamide] | 0.635 | 0.8 | 1.04 | 0.691 | 0.826 | 0.009 to 1.04 | – | – | – | – | – | – | – | –
2 | CC(C)CC1CCC(O)(C(C)(O)C(=O)NC2C(=O)N3NCCCC3C(=O)N(OC(=O)CCNC(=O)OCc3ccccc3)C(C)C(=O)NCC(=O)N3NCCCC3C(=O)N(O)C(C)C(=O)OC2C(C)C)OC1C (stereo not shown) [Compound 3, 18-hydroxy-23-(2-hydroxy-2-(2-hydroxy-5-isobutyl-6-methyltetrahydro-2H-pyran-2-yl)propanamido)-22-isopropyl-7,19-dimethyl-5,8,11,17,20,24-hexa oxoicosahydrodipyridazino[6,1-f:6′,1′-o][1,4,7,10,13,16]oxapentaazacyclononadecin-6(7H,13H,22H)-yl 3-(((benzyloxy)carbonyl)amino)propanoate] | 0.009 | 0.03 | 0.044 | 0.031 | 0.025 | 0.009 to 1.04 | – | – | – | – | – | – | – | –
3 | CC(C)CC1CCC(O)(C(C)(O)C(=O)NC2C(=O)N3NCCCC3C(=O)NC(C)C(=O)NCC(=O)N3NCCCC3C(=O)NC(C)C(=O)OC2C(C)C)OC1C (stereo not shown) [Compound 6, 2-hydroxy-2-(2-hydroxy-5-isobutyl-6-methyltetrahydro-2H-pyran-2-yl)-N-(22-isopropyl-7,19-dimethyl-5,8,11,17,20,24-hexaoxotetracosahydrodipyridazino[6,1-f:6′,1′-o][1,4,7,10,13,16]oxapentaazacyclononadecin-23-yl)propanamide] | 0.284 | 0.343 | 0.998 | 0.819 | 0.977 | 0.009 to 1.04 | – | – | – | – | – | – | – | –
4 | CC(C)CC1CCC(O)(C(C)(O)C(=O)NC2C(=O)N3NCCCC3C(=O)N(OC(=O)CCN)C(C)C(=O)NCC(=O)N3NCCCC3C(=O)N(O)C(C)C(=O)OC2C(C)C)OC1C (stereo not shown) [Compound 4, 18-hydroxy-23-(2-hydroxy-2-(2-hydroxy-5-isobutyl-6-methyltetra hydro-2H-pyran-2-yl)propanamido)-22-isopropyl-7,19-dimethyl-5,8,11,17,20,24-hexaoxo icosahydrodipyridazino[6,1-f:6′,1′-o][1,4,7,10,13,16]oxapentaazacyclononadecin-6(7H,13H,22H)-yl 3-aminopropanoate] | – | – | – | – | – | – | 0.17 | 0.2 | < 0.3 | 0.03 | – | – | – | –
5 | CC(C)CC1CCC(O)(C(C)(O)C(=O)NC2C(=O)N3N=CCCC3C(=O)N(O)C(C)C(=O)NCC(=O)N3NCCCC3C(=O)N(O)C(C)C(=O)OC2C(C)C)OC1C (stereo not shown) [Formula (1b), N-(6,18-dihydroxy-22-isopropyl-7,19-dimethyl-5,8,11,17,20,24-hexaoxo-3,4,4a,5,6,7,8,9, 10,11,13,14,15, 16,16a, 17,18,19,20,22,23,24-docosahydrodipyridazino[6,1-f:6′,1′-o][1,4,7,10, 13,16]oxapentaazacyclononadecin-23-yl)-2-hydroxy-2-(2-hydroxy-5-isobutyl-6-methyltetra hydro-2H-pyran-2-yl)propanamide] | 0.032 | 0.018 | 0.035 | – | 0.071 | 0.018 to 0.071 | – | – | – | – | 0.03 | Soluble in chloroform, ethyl acetate and methanol and | insoluble in water | –
6 | CON1C(=O)C2CCCNN2C(=O)C(NC(=O)C(C)(O)C2(O)CCC(CC(C)C)C(C)O2)C(C(C)C)OC(=O)C(C)N(O)C(=O)C2CCCNN2C(=O)CNC(=O)C1C (stereo not shown) [Compound 1, 2-hydroxy-N-(18-hydroxy-22-isopropyl-6-methoxy-7,19-dimethyl-5,8,11,17,20,24-hexaoxotetracosahydrodipyridazino[6,1-f:6′,1′-o][1,4,7,10,13,16]oxapentaazacyclononadecin-23-yl)-2-(2-hydroxy-5-isobutyl-6-methyltetrahydro-2H-pyran-2-yl) propanamide] | – | – | – | – | – | – | 0.287 | 0.293 | 0.247 | 0.355 | – | – | – | 0.502
7 | CC(=O)ON1C(=O)C2CCCNN2C(=O)C(NC(=O)C(C)(O)C2(O)CCC(CC(C)C)C(C)O2)C(C(C)C)OC(=O)C(C)N(O)C(=O)C2CCCNN2C(=O)CNC(=O)C1C (stereo not shown) [Compound 7, 18-hydroxy-23-(2-hydroxy-2-(2-hydroxy-5-isobutyl-6-methyltetra hydro-2H-pyran-2-yl)propanamido)-22-isopropyl-7,19-dimethyl-5,8,11,17,20,24-hexaoxo icosahydrodipyridazino[6,1-f:6′,1′-o[]1,4,7,10,13,16]oxapentaazacyclononadecin-6(7H,13H,22H)-yl acetate] | – | – | – | – | – | – | 0.257 | 0.32 | 0.83 | 0.843 | – | – | – | 0.36
8 | CC(C)CC1CCC(O)(C(C)(O)C(=O)NC2C(=O)N3N=CCCC3C(=O)N(O)C(C)C(=O)NCC(=O)N3N=CCCC3C(=O)N(O)C(C)C(=O)OC2C(C)C)OC1C (stereo not shown) [Compound 5, N-(6,18-dihydroxy-22-isopropyl-7,19-dimethyl-5,8,11,17,20,24-hexaoxo-3,4,4a,5,6,7,8,9,10,11,15,16,16a,17,18,19,20,22,23,24-icosahydrodipyridazino[6,1-f:6′,1′-o][1,4,7,10,13,16]oxapentaazacyclononadecin-23-yl)-2-hydroxy-2-(2-hydroxy-5-isobutyl-6-methyltetrahydro-2H-pyran-2-yl)propanamide] | < 0.01 | 0.012 | – | < 0.01 | 0.018 | 0.009 to 1.04 | – | – | – | – | 0.01 to 0.83 | – | – | –
